Experimental data reported in PubChem BioAssay (NCI).
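Here, GI50 denotes the concentration required for 50% inhibition of growth. TGI is the concentration that stops growth completely.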

Columns and labels:
Assay in all cases: growth of human tumour cells (NCI), 384-well format
[1] = tested on: T-47D breast
[2] = tested on: SN12C renal
[3] = tested on: SNB-19 CNS
[4] = tested on: OVCAR-8 ovarian
[5] = tested on: OVCAR-5 ovarian
[6] = tested on: TK-10 renal
[7] = tested on: A549 NSCLC
[8] = tested on: SK-OV-3 ovarian
[9] = tested on: HT29 colon
[10] = tested on: K-562 leukemia
[11] = tested on: UO-31 renal
[12] = tested on: SR leukemia
[13] = tested on: HL-60(TB) leukemia
[14] = tested on: SF-539 CNS
[15] = tested on: COLO 205 colon
[16] = tested on: 786-0 renal
[17] = tested on: OVCAR-4 ovarian
[18] = tested on: MDA-MB-231 breast
[19] = tested on: NCI/ADR-RES ovarian
[20] = tested on: MCF7 breast
[21] = tested on: NCI-H226 lung
[22] = tested on: UACC-257 melanoma
[23] = tested on: NCI-H23 lung
[24] = tested on: HCT-116 colon
[25] = tested on: MDA-MB-468 breast
[26] = tested on: A498 renal
[27] = tested on: IGROV1 ovarian
[28] = tested on: NCI-H322M lung
[29] = tested on: LOX IMVI melanoma
[30] = tested on: KM12 colon
[31] = tested on: U251 glioblastoma
[32] = tested on: MALME-3M melanoma
[33] = tested on: MDA-MB-435 melanoma
[34] = tested on: SF-295 CNS
[35] = tested on: HCT-15 colon
[36] = tested on: OVCAR-3 ovarian
[37] = tested on: BT-549 breast
[38] = tested on: DU-145 prostate
[39] = tested on: CCRF-CEM leukemia
[40] = tested on: SF-268 CNS
[41] = tested on: M14 melanoma
[42] = tested on: HOP-92 NSCLC
[43] = tested on: UACC-62 melanoma
[44] = tested on: MOLT-4 leukemia
[45] = tested on: CAKI-1 renal
[46] = tested on: NCI-H460 NSCLC
[47] = tested on: RPMI-8226 leukemia
[48] = tested on: SK-MEL-2 melanoma
[49] = tested on: PC-3 prostate
[50] = tested on: ACHN renal
[51] = tested on: SK-MEL-5 melanoma
[52] = tested on: SW-620 colon
[53] = tested on: HCC-2998 colon
[54] = tested on: SK-MEL-28 melanoma
[55] = tested on: HOP-62 NSCLC
[56] = tested on: RXF 393 renal
[57] = tested on: NCI-H522 lung

Molecule COc1ccc(CC(NC(=O)[C@H](C)NC(=O)CN2CCOCC2)C(=O)N[C@@H](Cc2ccccc2)C(=O)[C@@]2(C)CO2)cc1 (some centres undefined) has a GI50 [1] of 159 nM, a TGI [1] of 302 nM and a GI50 [2] of 179 nM. It also gave a TGI [2] of 320 nM, a GI50 [3] of 188 nM and a TGI [3] of 347 nM. The GI50 [4] was 184 nM, the TGI [4] was 340 nM and the GI50 [5] was 192 nM. The TGI [5] was 360 nM, the GI50 [6] was 298 nM and the TGI [6] was 802 nM. For the same molecule, the GI50 [7] was 319 nM, the TGI [7] was 1080 nM and the GI50 [8] was 171 nM. It also gave a TGI [8] of 312 nM, a GI50 [9] of 181 nM and a TGI [9] of 330 nM. For the same molecule, the GI50 [10] was 224 nM, the TGI [10] was 468 nM and the GI50 [11] was 1750 nM. It also gave a TGI [11] of 3170 nM, a GI50 [12] of 30.4 nM and a TGI [12] of 106 nM. The GI50 [13] was 147 nM, the TGI [13] was 280 nM and the GI50 [14] was 175 nM. For the same molecule, the TGI [14] was 315 nM, the GI50 [15] was 304 nM and the TGI [15] was 1010 nM. For the same molecule, the GI50 [16] was 297 nM, the TGI [16] was 1030 nM and the GI50 [17] was 147 nM. The TGI [17] was 284 nM, the GI50 [18] was 166 nM and the TGI [18] was 309 nM. The GI50 [19] was 20400 nM, the TGI [19] was 59400 nM and the GI50 [20] was 138 nM. For the same molecule, the TGI [20] was 382 nM, the GI50 [21] was 60.5 nM and the TGI [21] was 186 nM. For the same molecule, the GI50 [22] was 123 nM, the TGI [22] was 253 nM and the GI50 [23] was 210 nM. It also gave a TGI [23] of 362 nM, a GI50 [24] of 167 nM and a TGI [24] of 309 nM. For the same molecule, the GI50 [25] was 180 nM, the TGI [25] was 324 nM and the GI50 [26] was 226 nM. For the same molecule, the TGI [26] was 545 nM, the GI50 [27] was 255 nM and the TGI [27] was 647 nM. The GI50 [28] was 284 nM, the TGI [28] was 860 nM and the GI50 [29] was 209 nM. It also gave a TGI [29] of 355 nM, a GI50 [30] of 165 nM and a TGI [30] of 308 nM. It also gave a GI50 [31] of 173 nM, a TGI [31] of 316 nM and a GI50 [32] of 136 nM. For the same molecule, the TGI [32] was 281 nM, the GI50 [33] was 141 nM and the TGI [33] was 281 nM. For the same molecule, the GI50 [34] was 157 nM, the TGI [34] was 294 nM and the GI50 [35] was 1810 nM. It also gave a TGI [35] of 3390 nM, a GI50 [36] of 131 nM and a TGI [36] of 262 nM. It also gave a GI50 [37] of 175 nM, a TGI [37] of 316 nM and a GI50 [38] of 302 nM. The TGI [38] was 861 nM, the GI50 [39] was 37.4 nM and the TGI [39] was 137 nM. It also gave a GI50 [40] of 136 nM, a TGI [40] of 269 nM and a GI50 [41] of 142 nM. The TGI [41] was 278 nM, the GI50 [42] was 149 nM and the TGI [42] was 294 nM. The GI50 [43] was 126 nM, the TGI [43] was 254 nM and the GI50 [44] was 15.5 nM. For the same molecule, the TGI [44] was 28.9 nM, the GI50 [45] was 271 nM and the TGI [45] was 765 nM. For the same molecule, the GI50 [46] was 181 nM, the TGI [46] was 355 nM and the GI50 [47] was 23.8 nM. It also gave a TGI [47] of 55.4 nM, a GI50 [48] of 22.6 nM and a TGI [48] of 93.8 nM. It also gave a GI50 [49] of 188 nM, a TGI [49] of 333 nM and a GI50 [50] of 509 nM. For the same molecule, the TGI [50] was 1690 nM, the GI50 [51] was 192 nM and the TGI [51] was 345 nM. It also gave a GI50 [52] of 167 nM, a TGI [52] of 312 nM and a GI50 [53] of 173 nM. It also gave a TGI [53] of 312 nM, a GI50 [54] of 132 nM and a TGI [54] of 262 nM. The GI50 [55] was 184 nM, the TGI [55] was 331 nM and the GI50 [56] was 135 nM. The TGI [56] was 268 nM, the GI50 [57] was 167 nM and the TGI [57] was 304 nM.
